Results reported in PubChem BioAssay (NCI).
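GI50 marks 50% less growth. TGI marks complete inhibition of growth.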

Columns and labels:
Test in all cases: DTP human tumour cell line panel, 384-well format
[1] = tested on: CAKI-1 renal
[2] = tested on: SW-620 colon
[3] = tested on: SK-MEL-2 melanoma
[4] = tested on: MDA-MB-231 breast
[5] = tested on: EKVX NSCLC
[6] = tested on: HCT-15 colon
[7] = tested on: SK-OV-3 ovarian
[8] = tested on: MDA-MB-435 melanoma
[9] = tested on: U251 glioblastoma
[10] = tested on: TK-10 renal
[11] = tested on: NCI-H226 lung
[12] = tested on: OVCAR-5 ovarian
[13] = tested on: KM12 colon

SMILES: CC(=O)N1CCC(Nc2cc(C(=O)NC[C@H](O)CN3CCc4ccccc4C3)ncn2)CC1
- GI50 [1]: > 100 µM
- TGI [1]: > 100 µM
- GI50 [2]: > 35.6 µM
- TGI [2]: > 100 µM
- GI50 [3]: > 100 µM
- TGI [3]: > 100 µM
- GI50 [4]: > 100 µM
- TGI [4]: > 100 µM
- GI50 [5]: > 100 µM
- TGI [5]: > 100 µM
- GI50 [6]: > 100 µM
- TGI [6]: > 100 µM
- GI50 [7]: > 100 µM
- TGI [7]: > 100 µM
- GI50 [8]: > 100 µM
- TGI [8]: > 100 µM
- GI50 [9]: > 100 µM
- TGI [9]: > 100 µM
- GI50 [10]: > 100 µM
- TGI [10]: > 100 µM
- GI50 [11]: > 100 µM
- TGI [11]: > 100 µM
- GI50 [12]: > 100 µM
- TGI [12]: > 100 µM
- GI50 [13]: > 100 µM
- TGI [13]: > 100 µM
